Tests used:
Conditions in all cases: 72 h
[1] = system: Caco-2; experiment: cell viability relative to DMSO; higher = less toxic
[2] = system: HepG2; experiment: as above
[3] = system: Vero E6; experiment: as above
[4] = system: U2OS; experiment: as above
[5] = system: Caco-2; experiment: drug sensitivity score (DSS) for viability; higher = more toxic; extreme values may be limits of the assay
[6] = system: HepG2; experiment: as above
[7] = system: Vero E6; experiment: as above
[8] = system: U2OS; experiment: as above
[9] = system: Caco-2; experiment: relative viability EC50 (midpoint between 100% and the lowest measured viability); higher = less toxic
[10] = system: HepG2; experiment: as above
[11] = system: Vero E6; experiment: as above
[12] = system: U2OS; experiment: as above
[13] = system: Calu-3; experiment: cell viability relative to DMSO; higher = less toxic
[14] = system: Calu-3; experiment: drug sensitivity score (DSS) for viability; higher = more toxic; extreme values may be limits of the assay
[15] = system: Calu-3; experiment: relative viability EC50 (midpoint between 100% and the lowest measured viability); higher = less toxic

| Compound | cell viability ([1]; 1 nM) [%] | cell viability ([1]; 10 nM) [%] | cell viability ([1]; 100 nM) [%] | cell viability ([1]; 1000 nM) [%] | cell viability ([1]; 10000 nM) [%] | cell viability ([2]; 1 nM) [%] | cell viability ([2]; 10 nM) [%] | cell viability ([2]; 100 nM) [%] | cell viability ([2]; 1000 nM) [%] | cell viability ([2]; 10000 nM) [%] | cell viability ([3]; 1 nM) [%] | cell viability ([3]; 10 nM) [%] | cell viability ([3]; 100 nM) [%] | cell viability ([3]; 1000 nM) [%] | cell viability ([3]; 10000 nM) [%] | cell viability ([4]; 1 nM) [%] | cell viability ([4]; 10 nM) [%] | cell viability ([4]; 100 nM) [%] | cell viability ([4]; 1000 nM) [%] | cell viability ([4]; 10000 nM) [%] | drug sensitivity score [5] | drug sensitivity score [6] | drug sensitivity score [7] | drug sensitivity score [8] | relative viability EC50 [9] [µM] | relative viability EC50 [10] [µM] | relative viability EC50 [11] [µM] | relative viability EC50 [12] [µM] | cell viability ([13]; 1 nM) [%] | cell viability ([13]; 10 nM) [%] | cell viability ([13]; 100 nM) [%] | cell viability ([13]; 1000 nM) [%] | cell viability ([13]; 10000 nM) [%] | drug sensitivity score [14] | relative viability EC50 [15] [µM] |
| --- | --- | --- | --- | --- | --- | --- | --- | --- | --- | --- | --- | --- | --- | --- | --- | --- | --- | --- | --- | --- | --- | --- | --- | --- | --- | --- | --- | --- | --- | --- | --- | --- | --- | --- | --- |
| O=C(/C=C/c1ccccc1)NCCO [brolitene] | 102 | 103 | 95 | 93.5 | 95 | 107 | 104 | 99.3 | 98 | 102 | 104 | 103 | 99.4 | 104 | 100 | 107 | 109 | 102 | 104 | 99.2 | 0 | 0 | 0 | 0 | > 10 | > 10 | > 10 | > 10 | – | – | – | – | – | – | – |
| CC(CCc1ccccc1)NC(C)C(O)c1ccc(O)cc1 (stereo not drawn) [buphenine] | 90.4 | 102 | 92.2 | 92.5 | 90 | 98.8 | 100 | 95.9 | 89.7 | 91.3 | – | – | – | – | – | 101 | 100 | 100 | 94.6 | 99.1 | 0 | 0.1 | – | 0 | > 10 | > 10 | – | > 10 | 108 | 106 | 99.3 | 104 | 110 | 0 | > 10 |
| O=C(O)c1cn(C2CC2)c2cc(N3CCNCC3)c(F)cc2c1=O [ciprofloxacin] | 112 | 100 | 108 | 112 | 79.1 | 106 | 104 | 114 | 78.1 | 99.8 | 102 | 97.8 | 102 | 91.8 | 97.1 | 100 | 97.8 | 98 | 96.4 | 103 | 0.4 | 0 | 0 | 0 | > 10 | > 10 | > 10 | > 10 | – | – | – | – | – | – | – |
| CC[C@H]1OC(=O)[C@H](C)[C@@H](O[C@H]2C[C@@](C)(OC)[C@@H](O)[C@H](C)O2)[C@H](C)[C@@H](O[C@@H]2O[C@H](C)C[C@H](N(C)C)[C@H]2O)[C@](C)(OC)C[C@@H](C)C(=O)[C@H](C)[C@@H](O)[C@]1(C)O [clarithromycin] | 102 | 103 | 112 | 100 | 90.7 | 104 | 104 | 108 | 98 | 99.8 | – | – | – | – | – | 99.3 | 102 | 102 | 96.1 | 98.7 | 0 | 0 | – | 0 | > 10 | > 10 | – | > 10 | 93.1 | 107 | 94.5 | 104 | 99.5 | 0 | > 10 |
| N#Cc1ccc(Oc2ccc3c(c2)COB3O)cc1 [crisaborole] | 104 | 104 | 107 | 98.8 | 101 | 106 | 105 | 112 | 104 | 95.8 | 103 | 105 | 101 | 102 | 98.1 | – | – | – | – | – | 0 | 0 | 0 | – | > 10 | > 10 | > 10 | – | 89.8 | 94.6 | 96.7 | 94.3 | 108 | 0 | > 10 |
| C=C1CCN([C@H](C)[C@](O)(Cn2cncn2)c2ccc(F)cc2F)CC1 [efinaconazole] | 96.9 | 98.3 | 100 | 91.8 | 78.3 | 102 | 98.3 | 92.4 | 95.9 | 91.5 | – | – | – | – | – | 99.2 | 101 | 96.2 | 103 | 96.1 | 1.7 | 0 | – | 0 | > 10 | > 10 | – | > 10 | 88 | 99.3 | 94.7 | 96.9 | 91.4 | 0 | > 10 |
| CNC(=O)c1c(I)c(NC(C)=O)c(I)c(C(=O)O)c1I [iothalamic-acid-d3] | 91.8 | 91.5 | 87.6 | 94.5 | 102 | 107 | 101 | 107 | 94.9 | 100 | – | – | – | – | – | 99.6 | 109 | 104 | 106 | 103 | 0 | 0 | – | 0 | > 10 | > 10 | – | > 10 | 94.6 | 99 | 80.3 | 102 | 85.2 | 0.1 | > 10 |
| COc1ccc2[nH]cc(CCNC(C)=O)c2c1 [melatonin] | 107 | 88.8 | 101 | 102 | 99.5 | – | – | – | – | – | – | – | – | – | – | – | – | – | – | – | 0 | – | – | – | > 10 | – | – | – | 101 | 105 | 96.8 | 109 | 105 | 0 | > 10 |
| CC1CCN(CCCC(=O)c2ccc(F)cc2)CC1 [melperone] | 99.3 | 103 | 98.3 | 93.5 | 89.9 | 104 | 96.5 | 102 | 99.7 | 101 | 100 | 98 | 98.9 | 93 | 100 | 99.4 | 98.6 | 95.5 | 100 | 93.7 | 0 | 0 | 0 | 0 | > 10 | > 10 | > 10 | > 10 | – | – | – | – | – | – | – |
| O=S(=O)(O)CCS [mesna] | 114 | 102 | 104 | 97.2 | 104 | – | – | – | – | – | 103 | 102 | 107 | 98.5 | 101 | – | – | – | – | – | 0 | – | 0 | – | > 10 | – | > 10 | – | 98.4 | 91.8 | 104 | 95.9 | 103 | 0 | > 10 |
| CCOC(=O)CC(=O)N1CCSC1COc1ccccc1OC (stereo not drawn) [moguisteine] | 98.6 | 98.3 | 96.3 | 105 | 98.4 | 93.7 | 97 | 99.2 | 112 | 104 | 99.7 | 101 | 100 | 105 | 105 | – | – | – | – | – | 0 | 0 | 0 | – | > 10 | > 10 | > 10 | – | 99.2 | 103 | 99.3 | 97.6 | 92.8 | 0 | > 10 |
| Cc1cn(-c2cc(NC(=O)c3ccc(C)c(Nc4nccc(-c5cccnc5)n4)c3)cc(C(F)(F)F)c2)cn1 [nilotinib] | 101 | 114 | 97.9 | 106 | 88.1 | – | – | – | – | – | 107 | 98.2 | 103 | 103 | 106 | – | – | – | – | – | 0 | – | 0 | – | > 10 | – | > 10 | – | 98.8 | 106 | 111 | 90.1 | 100 | 0 | > 10 |
| CN[C@H](CC(C)C)C(=O)N[C@H]1C(=O)N[C@@H](CC(N)=O)C(=O)N[C@H]2C(=O)N[C@H]3C(=O)N[C@H](C(=O)N[C@H](C(=O)O)c4cc(O)cc(O)c4-c4cc3ccc4O)[C@H](O[C@H]3C[C@](C)(N)[C@@H](O)[C@H](C)O3)c3ccc(c(Cl)c3)Oc3cc2cc(c3O[C@@H]2O[C@H](CO)[C@@H](O)[C@H](O)[C@H]2O[C@H]2C[C@](C)(NCc3ccc(-c4ccc(Cl)cc4)cc3)[C@@H](O)[C@H](C)O2)Oc2ccc(cc2Cl)[C@H]1O [oritavancin] | 97.2 | 97.7 | 98 | 90.4 | 102 | 104 | 106 | 98.9 | 104 | 105 | 108 | 113 | 93.2 | 106 | 95.7 | 102 | 100 | 103 | 96.5 | 102 | 0 | 0 | 0 | 0 | > 10 | > 10 | > 10 | > 10 | – | – | – | – | – | – | – |
| CC(C)=CCC/C(C)=C/CC/C(C)=C/C=C/C(C)=C/C(=O)O [peretinoin] | 104 | 98.9 | 101 | 97.9 | 102 | 101 | 94.3 | 90.9 | 103 | 104 | 101 | 96.1 | 106 | 93.3 | 104 | – | – | – | – | – | 0 | 0 | 0 | – | > 10 | > 10 | > 10 | – | 107 | 104 | 105 | 114 | 97.6 | 0 | > 10 |
| O=C1c2cc(Cl)ccc2OC2CCON12 (stereo not drawn) [seclazone] | 108 | 86.3 | 91 | 97.4 | 99.2 | 102 | 108 | 94.8 | 97.8 | 107 | 90 | 98.2 | 92.7 | 95.2 | 102 | 106 | 96.7 | 101 | 105 | 100 | 0 | 0 | 0 | 0 | > 10 | > 10 | > 10 | > 10 | – | – | – | – | – | – | – |
| COc1cc(NS(=O)(=O)c2ccc(N)cc2)nc(OC)n1 [sulphadimethoxine] | 109 | 99.9 | 103 | 100 | 99.9 | 106 | 108 | 122 | 98.9 | 105 | 100 | 97.8 | 98.8 | 103 | 97.5 | – | – | – | – | – | 0 | 0 | 0 | – | > 10 | > 10 | > 10 | – | 103 | 90.3 | 91.8 | 98.9 | 94 | 0 | > 10 |
| S=P(N1CC1)(N1CC1)N1CC1 [thiotepa] | 94.7 | 101 | 94.8 | 98.5 | 91.1 | 104 | 96.6 | 102 | 100 | 107 | 108 | 98.9 | 106 | 97.3 | 102 | – | – | – | – | – | 0 | 0 | 0 | – | > 10 | > 10 | > 10 | – | 91.8 | 95.7 | 97.5 | 90.2 | 89.5 | 0 | > 10 |

Source: the supplement of paper PMC13380429
